Reference: EP0760362B1, “DIAMINOMETHYLIDENE DERIVATIVE” (NISSHIN SEIFUN GROUP INC., priority 1994, dated 1995)

Test system: longitudinal muscle sample (including myenteric plexus) prepared from the ileum
Assay: Acetylcholine-release promoting action: contraction of electrically stimulated ileal longitudinal muscle in Magnus' tube
Parameters: species or system guinea pig
Details: increase ratio in contraction by electrical stimulation, isometrically recorded
Method: Acetylcholine-release promoting action of the present compounds in the gastrointestinal tract was investigated according to the following procedure. A longitudinal muscle sample (including myenteric plexus) was prepared from the ileum excised from guinea pig and suspended in Magnus' tube. This sample was perfused in a physiological salt solution and stimulated by the electric current via platinum electrodes. […] This contraction was isometrically recorded. Accordingly, the drug capable of accelerating the release of acetylcholine could enhance the contraction caused by electric stimulation only. Evaluation of the compounds was represented in terms of increase ratio in contraction by electrical stimulation. The tested compounds are shown in terms of the numbers of the corresponding Examples.

SMILES | Contraction increase rate (%) (10^-5M) | Contraction increase rate (%) (10^-7M)
CCOC(=O)C(C#N)=C(NCC1CN(Cc2ccc(F)cc2)CCO1)NC1CCCCC1 (centres unmarked) [Example 9, Ethyl 3-cyclohexylamino-3-[4-(p-fluorobenzyl)-2-morpholinylmethylamino]-2-cyanoacrylate] | 31.9% | 8.7%
N#CC(C#N)=C(NCc1ccc(F)cc1)NCC1CN(Cc2ccc(F)cc2)CCO1 (centres unmarked) [Example 13, 2-(p-Fluorobenzylamino)-2-[4-(p-fluorobenzyl)-2-morpholinylmethylamino]-1,1-ethylenedicarbonitrile] | 15.0% | 4.9%
N#CC(C#N)=C(NCc1ccccc1)NCC1CN(Cc2ccc(F)cc2)CCO1 (centres unmarked) [Example 1, 2-Benzylamino-2-[4-(p-fluorobenzyl)-2-morpholinylmethylamino]-1,1-ethylenedicarbonitrile] | 12.3% | 3.9%
CNC(=O)NCC1CN(Cc2ccc(F)cc2)CCO1 (centres unmarked) [Example 19, 1-[4-(p-Fluorobenzyl)-2-morpholinylmethyl]-3-methylurea] |  | 9.8%
N#CC(C#N)=C(NCC1CN(Cc2ccc(F)cc2)CCO1)NC1CCCCC1 (centres unmarked) [Example 2, 2-Cyclohexylamino-2-[4-(p-fluorobenzyl)-2-morpholinylmethylamino]-1,1-ethylenedicarbonitrile] | 5.3% | 
CNC(NC1CC2COCC(C1)N2Cc1ccc(F)cc1)=C(C#N)C#N (stereo not drawn) [Example 15, 2-[endo-9-(p-Fluorobenzyl)-9-aza-3-oxabicyclo[3.3.1]non-7-ylamino]-2-methylamino-1,1-ethylenedicarbonitrile] |  | 3.9%
CNC(=O)NC1CC2COCC(C1)N2Cc1ccc(F)cc1 (stereo not drawn) [Example 20, 1-[endo-9-(p-Fluorobenzyl)-9-aza-3-oxabicyclo[3.3.1]non-7-yl]-3-methylurea] |  | 4.2%
CC(C)CNC(NCC1CN(Cc2ccc(F)cc2)CCO1)=C(C#N)C#N (centres unmarked) [Example 5, 2-[4-(p-Fluorobenzyl)-2-morpholinylmethylamino]-2-isobutylamino-1,1-ethylenedicarbonitrile] | 4.9% | 
CNC(=C[N+](=O)[O-])NC1CC2COCC(C1)N2Cc1ccc(F)cc1 (stereo not drawn) [Example 17, N-[endo-9-(p-Fluorobenzyl)-9-aza-3-oxabicyclo[3.3.1]non-7-yl]-N'-methyl-2-nitrovinylidene-1,1-diamine] | 5.7% | 3.2%
CCOC(=O)C(C#N)=C(NCc1ccccc1)NCC1CN(Cc2ccc(F)cc2)CCO1 (centres unmarked) [Example 6, Ethyl 3-benzylamino-3-[4-(p-fluorobenzyl)-2-morpholinylmethylamino]-2-cyanoacrylate] | 20.3% | 3.0%
CCOC(=O)C(C#N)=C(NCCOCCNCc1ccc(F)cc1)NC1CCCCC1 [Example 12, Ethyl 3-cyclohexylamino-3-[7-(p-fluorophenyl)-6-aza-3-oxaheptylamino]-2-cyanoacrylate] | 7.9% | 0.8%
CNC(NC1CC2COCC(C1)N2CCCOc1ccc(F)cc1)=C(C#N)C#N (stereo not drawn) [Example 16, 2-[endo-9-[3-(p-Fluorophenoxy)propyl]-9-aza-3-oxabicyclo-[3.3.1]non-7-ylamino]-2-methylamino-1,1-ethylenedicarbonitrile] |  | 3.1%
CCOC(=O)C(C#N)=C(NCC1CN(Cc2ccc(F)cc2)CCO1)Nc1ccccc1 (centres unmarked) [Example 7, Ethyl 3-[4-(p-fluorobenzyl)-2-morpholinylmethylamino]-3-phenylamino-2-cyanoacrylate] |  | 0.7%
CCOC(=O)C(C#N)=C(NCC1CN(Cc2ccc(F)cc2)CCO1)Nc1ccc(OC)cc1 (centres unmarked) [Example 10] | 11.8% | 9.1%
CCOC(=O)C(C#N)=C(NCC(C)C)NCC1CN(Cc2ccc(F)cc2)CCO1 (centres unmarked) [Example 8, Ethyl 3-[4-(p-fluorobenzyl)-2-morpholinylmethylamino]-3-isobutylamino-2-cyanoacrylate] | 32.4% | 8.5%
